Experimental data from patent publication US5049552A, “Compositions containing hexadecylphosphocholine and use thereof” (Max-Planck-Gesellschaft fur Foerderung der Wissenschaften …, priority 1985, dated 1991).
Like-named read-outs stand apart in the source and are kept apart here.

Experiments:
[1] = test system: tumors; assay: anti-tumor action and toxicity, general statement (homologous alkyl compounds); details: for anti-tumor action / toxicity: general statement
[2] = subacute toxicity during a treatment of 5 weeks (mortality, median survival time); format: in vivo, rat
Source text: (§1) Hexadecylphosphocholine is a known substance. […] Therefore, in spite of an anti-tumor action, the median survival time in comparison with the control was shortened by 72% in the case of octadecylphosphocholine-treated animals.

[3] = test system: methylnitrosourea-induced mammary carcinoma; assay: methylnitrosourea-induced mammary carcinoma of the rat, in vivo
Source text: as §1

[4] = test system: L1210; assay: L1210 colony experiment in vitro; format: cell-based
[5] = Pharmazie 37, 1982, pages 706-707; cited from earlier work
[6] = test system: 7,12-dimethylbenzanthracene-induced mammary carcinoma; assay: 7,12-dimethylbenzanthracene-induced mammary carcinoma of the rat; format: in vivo
[7] = test system: chemically induced mammary carcinomas; assay: chemically induced mammary carcinoma of the rat (7,12-dimethylbenzanthracene or methylnitrosourea), in vivo; details: for minimal effective dose / effect on tumor growth / general dose range for the action / general dose range for the action, especially: rat; for minimal effective dose: read-out: lowest already effective dose
Source text: For oral administration, hexadecylphosphocholine is used, for example, in the form of a potable solution. As carriers there are suitable, for example, milk, cocoa, fruit juice or drinking water. The preparation of such a potable solution takes place, for example, by dilution of a concentrated alcoholic solution of hexadecylphosphocholine with water or another of the previously mentioned agents. […] In the case of the tumor model used for these experiments, it is a question of a so-called hard model. This means that findings obtained with this model can also be transmitted to the human situation.

[8] = 5 weeks, daily dose 77 μmole/kg rat orally

CCCCCCCCCCCCCCCCCCOP(=O)([O-])OCC[N+](C)(C)C [octadecylphosphocholine, reference compound]
anti-tumor action [1]: anti-tumor effective | toxicity [1]: far too toxic | shortening of median survival time in comparison with the control [2, 8]: 72% | mortality at 840 h ([2]; in vivo, po, 77 umol/kg, 5 weeks, daily dose 77 μmole/kg rat orally, read-out: mortality (of all animals)): 80%

CCCCCCCCCCCCCCOP(=O)([O-])OCC[N+](C)(C)C [tetradecylphosphocholine, reference compound]
anti-tumor action ([3]; in vivo, autochthonous methylnitrosourea-induced mammary carcinoma of the rat): practically no anti-tumor action | anti-tumor action [4]: practically no anti-tumor action

CCCCCCCCCCCCCCCCOP(=O)([O-])OCC[N+](C)(C)C [hexadecylphosphocholine]
lysing and fusogenic action [5]: a lysing and fusogenic action | anti-tumor action [1]: practically useful good anti-tumor action | toxicity [1]: sufficient anti-tumor action in non-toxic doses | anti-tumor action ([1]; listed as Hexadecylphosphocholine): excellent anti-tumor action | synergistic increase of antitumor action with alkylglycerols / glycerol ethers of formula I ([1]; hexadecylphosphocholine together with alkylglycerol): synergistic action increase of the antitumor action | action on methylnitrosourea-induced mammary carcinoma ([3]; rat): good action | mortality in comparison with octadecylphosphocholine-treated animals [2, 8]: lower by a half | increase of the median survival time in comparison with the controls ([2]; 5 weeks, highly significant): 26% | chronic toxicity ([2]; rat, oral): absence of a chronic toxicity | action on 7,12-dimethylbenzanthracene-induced mammary carcinoma [6]: good action | minimal effective dose ([7]; iv, intravenously): 5 mg/kg | minimal effective dose ([7]; po, orally): 5 mg/kg | effect on tumor growth ([7]; 10 mg./kg. body weight): cessation of growth of the tumors | effect on tumor growth ([7]; doses higher than 10 mg./kg.): complete disappearance of the growths | general dose range for the action ([7]; intravenously): 5 to 50 mg/kg | general dose range for the action, especially ([7]; intravenously): 15 to 32 mg/kg | general dose range for the action ([7]; orally): 5 to 50 mg/kg | general dose range for the action, especially ([7]; orally): 15 to 32 mg/kg | remission of chemically induced mammary carcinomas ([7]; rats, daily doses of 20, 40 and 60 mg./kg., oral): complete remission | compatibility versus 1-octadecyl-2-methyl-rac-glycero-3-phosphocholine ([7]; rats, oral): better compatible | effectiveness versus 1-octadecyl-2-methyl-rac-glycero-3-phosphocholine ([7]; rats, oral): better effective
